We go through two molecules from patent US10322037B2, “Absorbent article” (UNICHARM CORPORATION, priority 2012, dated 2019).

A value given as a limit tells only on which side of the number the result lay.

The text on this data set: As used herein, the term “solubility” in regard to water solubility includes cases where the sample completely dissolves in deionized water to form a homogeneous mixture, and cases where the sample is completely emulsified. As used herein, “completely” means that no mass of the sample remains in the deionized water.

With `CCCCCCCCCCCCOC(=O)CCCCCCCCCCC` [2-18], the “Water solubility” value was <0.05 g.
Next, `CCCCCCCCCCCCCC(=O)OCCCCCCCCCCCC` [2-19]: <0.05 g.
